{
  "source": "patent US20070092558A1",
  "about": "“Methods of Preparing Targeted Immunoliposomes” (priority 2005, published 2007)",
  "key": {"[1]": {"tested_on": "MD-MBA 231 (breast cancer cells)", "assay": "cytotoxicity assay (ATPlite luminescence), 1 h treatment then 72 h incubation", "details": "MD-MBA 231 cells, 0-18 μg/ml [DOX], FIG. 3A"}, "[2]": {"tested_on": "A431 (epidermoid cancer cells)", "details": "0-18 μg/ml [DOX], 1-hour treatment, 72-hour incubation, FIG. 3B"}},
  "data": [
    {"smiles": "COc1cccc2c1C(=O)c1c(O)c3c(c(O)c1C2=O)C[C@@](O)(C(=O)CO)C[C@@H]3O[C@H]1C[C@H](N)[C@H](O)[C@H](C)O1", "note": "[free doxorubicin, doxorubicin]", "values": [
      {"measurement": "cytotoxicity (cell viability)", "setting": "[1]", "value": "concentration effects on cell viability"},
      {"measurement": "cytotoxicity (cell viability)", "setting": "[2]", "value": "concentration effects on cell viability"}
    ]}
  ]
}
